Measurements reported in patent US11141413B2, “Method of treating renal cell carcinoma using N-(4-(6,7-dimethoxyquinolin-4-yloxy)phenyl)-N′-(4-fluorophenyl)cyclopropane-1,1-dicarboxamide, (2S)-hydroxybutanedioate” (Exelixis, Inc., priority 2016, dated 2021).

System: bone metastases in advanced RCC patients
Experiment: METEOR bone endpoints: bone scan response, skeletal-related events, bone markers
Type: in vivo, human
Settings: for C-terminal cross-lined telopeptides of type 1 collagen (CTx), median / N-terminal propeptide of type 1 collagen (P1NP), median: patients with bone metastases at baseline; for Bone scan response (BSR) per IRC: patients with bone lesions at baseline by bone scan, BSR = ≥30% decrease in BSLA
Excerpt: The study design in depicted in FIG. 8.3. Clinical outcome measures included PFS, ORR, overall survival (OS), and safety. Exploratory endpoints included bone scan response (BSR) in patients with bone scan lesions at baseline (Brown Nucl Med Commun 2012 33:384), incidence of skeletal-related events (SRE), and changes in bone turnover markers. The subgroup of patients with bone metastases (N=142) was defined by the presence of bone metastases at baseline by CT or MRI per IRC. Bone scan response (BSR) was evaluated for patients who had bone lesions detected by technetium bone scans at baseline (N=178).
Participants were screened via CT or MRI every 8 weeks for the first 12-months post-randomization, and then every 12 weeks thereafter. Technetium bone scans were performed at screening (all patients), every 16 weeks for the first 12 months post-randomization (only in patients with bone lesions at baseline), and then every 23 weeks thereafter. Skeletal-related events (SREs) were assessed and consisted of pathological fractures, spinal cord compression, surgery to bone, and external radiation therapy to bone. Serum bone marker analyses consisted on N-terminal propeptide of type I collagen (PINP), and the bone resorption marker c-terminal cross-lined telopeptides of type I collagen (CTx), which were collected prior to the first dose at week 1, at week 5, and at week 9.
Bone scan responses per IRC in patients with bone scan lesions were performed using computer-assisted detection of bone scan lesions. An IRC was used to quantitate bone scan tumor burden using computer-assisted detection (CAD) to measure lesions and defined criteria for response. Bone scan lesion area (BSLA), which represents the number of pixels with radiotracer uptake above the threshold for normal bone, was also calculated. BSR was defined as greater than or equal to 30% decrease in BSLA.

[1] = patients with an SRE pre-randomization
[2] = prior history of SREs, Pts with Bone Metastases
[3] = prior history of SREs, Pts without Bone Metastases

COc1cc2nccc(Oc3ccc(NC(=O)C4(C(=O)Nc5ccc(F)cc5)CC4)cc3)c2cc1OC [cabozantinib]
C-terminal cross-lined telopeptides of type 1 collagen (CTx), median (Baseline): 0.40 µg/L
N-terminal propeptide of type 1 collagen (P1NP), median (Baseline): 48.5 µg/L
Post-Randomization SREs, % (Pts with Bone Metastases): (21) %
Post-randomization SRE: External radiation therapy to bone, % (Pts with Bone Metastases): (9) %
Post-randomization SRE: Pathologic fractures, % (Pts with Bone Metastases): (12) %
Post-randomization SRE: Spinal cord compression, % (Pts with Bone Metastases): (3) %
Post-randomization SRE: Surgery to bone, % (Pts with Bone Metastases): (8) %
Time to first SRE, median (Pts with Bone Metastases): 3.45 months
Post-Randomization SREs, % (Pts without Bone Metastases): (9) %
Post-randomization SRE: External radiation therapy to bone, % (Pts without Bone Metastases): (7) %
Post-randomization SRE: Pathologic fractures, % (Pts without Bone Metastases): (3) %
Post-randomization SRE: Spinal cord compression, % (Pts without Bone Metastases): (1) %
Post-randomization SRE: Surgery to bone, % (Pts without Bone Metastases): (2) %
Time to first SRE, median (Pts without Bone Metastases): 3.93 months
C-terminal cross-lined telopeptides of type 1 collagen (CTx), median (Week 5): 0.19 µg/L
N-terminal propeptide of type 1 collagen (P1NP), median (Week 5): 38.9 µg/L
Reductions in bone markers (cabozantinib vs everolimus): greater
Cases of spinal cord compression [1]: 0
Incidence of post-randomization SREs [1]: 16%
Bone scan response (BSR) per IRC: 18%
Bone scan response (BSR) per IRC (listed as Cabozantinib): 18 (11, 27) %
Post-randomization SRE: External radiation therapy to bone, % [2]: (9) %
Post-randomization SRE: Pathologic fractures, % [2]: (14) %
Post-randomization SRE: Surgery to bone, % [2]: (9) %
SREs in patients with a prior history of SREs, % [2]: (23) %
Time to first SRE, median [2]: 3.25 months
Post-randomization SRE: External radiation therapy to bone, % [3]: (8) %
Post-randomization SRE: Pathologic fractures, % [3]: (6) %
Post-randomization SRE: Surgery to bone, % [3]: (4) %
SREs in patients with a prior history of SREs, % [3]: (10) %
Time to first SRE, median [3]: 2.76 months
Cases of spinal cord compression (randomized patients): 4
Patients with at least one skeletal-related event (SRE) (randomized patients): 12%

CO[C@H]1C[C@@H]2CC[C@@H](C)[C@@](O)(O2)C(=O)C(=O)N2CCCC[C@H]2C(=O)O[C@H]([C@H](C)C[C@@H]2CC[C@@H](OCCO)[C@H](OC)C2)CC(=O)[C@H](C)/C=C(\C)[C@@H](O)[C@@H](OC)C(=O)[C@H](C)C[C@H](C)/C=C/C=C/C=C/1C [everolimus]
C-terminal cross-lined telopeptides of type 1 collagen (CTx), median (Baseline): 0.43 µg/L
N-terminal propeptide of type 1 collagen (P1NP), median (Baseline): 49.9 µg/L
Post-Randomization SREs, % (Pts with Bone Metastases): (29) %
Post-randomization SRE: External radiation therapy to bone, % (Pts with Bone Metastases): (25) %
Post-randomization SRE: Pathologic fractures, % (Pts with Bone Metastases): (5) %
Post-randomization SRE: Spinal cord compression, % (Pts with Bone Metastases): (6) %
Post-randomization SRE: Surgery to bone, % (Pts with Bone Metastases): (8) %
Time to first SRE, median (Pts with Bone Metastases): 2.53 months
Post-Randomization SREs, % (Pts without Bone Metastases): (10) %
Post-randomization SRE: External radiation therapy to bone, % (Pts without Bone Metastases): (7) %
Post-randomization SRE: Pathologic fractures, % (Pts without Bone Metastases): (3) %
Post-randomization SRE: Spinal cord compression, % (Pts without Bone Metastases): (2) %
Post-randomization SRE: Surgery to bone, % (Pts without Bone Metastases): (2) %
Time to first SRE, median (Pts without Bone Metastases): 4.27 months
C-terminal cross-lined telopeptides of type 1 collagen (CTx), median (Week 5): 0.43 µg/L
N-terminal propeptide of type 1 collagen (P1NP), median (Week 5): 44.1 µg/L
Cases of spinal cord compression [1]: 5
Incidence of post-randomization SREs [1]: 34%
Bone scan response (BSR) per IRC: 10%
Bone scan response (BSR) per IRC (listed as Everolimus): 10 (4, 19) %
Post-randomization SRE: External radiation therapy to bone, % [2]: (28) %
Post-randomization SRE: Pathologic fractures, % [2]: (5) %
Post-randomization SRE: Spinal cord compression, % [2]: (5) %
Post-randomization SRE: Surgery to bone, % [2]: (7) %
SREs in patients with a prior history of SREs, % [2]: (33) %
Time to first SRE, median [2]: 2.41 months
Post-randomization SRE: External radiation therapy to bone, % [3]: (23) %
Post-randomization SRE: Pathologic fractures, % [3]: (13) %
Post-randomization SRE: Spinal cord compression, % [3]: (6) %
Post-randomization SRE: Surgery to bone, % [3]: (9) %
SREs in patients with a prior history of SREs, % [3]: (36) %
Time to first SRE, median [3]: 4.27 months
Cases of spinal cord compression (randomized patients): 8
Patients with at least one skeletal-related event (SRE) (randomized patients): 14%
